Measurements as given in US12576085B2, “Combination comprising an ATP analog and an adenosine receptor antagonist or a nucleobase/nucleoside analog for the treatment of cancer” (priority 2010, dated 2026).

What was measured:
[1] = cited from earlier work
T84 cells = assay: Short-circuit current (ISC, Cl- secretion) in T84 cells in Ussing chambers; assay type: cell-based, human; conditions: for effect of antagonist on currents induced by imatinib and adenosine: 10 μM antagonist after 100 μM imatinib and 1 μM adenosine; for increase in ISC on basolateral addition of the compound alone: NBMPR 10 μM, imatinib 100 μM, no extracellular adenosine added; for increase in ISC on basolateral addition of the compound alone / currents on apical addition of the TKI: erlotinib 20 μM, gefitinib 100 μM
Experimental: T84 cells were routinely grown in DMEM/F12 (1:1) cell culture media with 10% FBS, 1 mM sodium pyruvate, 1× penicillin/streptomycin and 10 mM HEPES. For experiments described in this report, T84 cells were grown on 12 mm snapwell inserts for 6-8 days with media changes every 2-3 days. […] Compounds were added in small aliquots to the basolateral or apical chamber and the secretory response was measured as an increase in short-circuit current (ISC) due to Cl^− secretion and was monitored as a function of time.

[2] = patients treated with erlotinib; cited from earlier work
[3] = tested on: adenine nucleobase transporters; conditions: read-out: IC50 for inhibition of adenine transport; 1 μM [3H]adenine, hRPTCs, sodium buffer pH 7.4, 2 minute incubation
Experimental: Human renal proximal tubule cells (hRPTCs) were seeded in 12-well plates at densities of 10^5 cells/well and grown for 7 days with medium changes every 3-4 days. On the day of experiments, growth medium was aspirated and cells were washed twice with 1.5 ml of 20 mM Tris-HCl buffer (pH 7.4) containing 150 mM NaCl, 1.2 mM MgCl2 and 1 mM CaCl2 (hereafter referred to as sodium buffer). […] At the end of 2 minute incubations, cells were washed twice with sodium buffer and intracellular accumulation of [^3H]adenine was determined by solubilizing cells with 5% Triton-X-100 and subsequent determination of radioactivity in a scintillation counter. Data are presented as percent of values obtained in the absence of a competitor (controls). Resulting concentration-effect curves were analyzed by nonlinear regression analysis using Graph Pad Prism software version 4.0 (Graph Pad Software Inc., San Diego, CA) to obtain IC50 values for the compounds.

O=c1[nH]cc(F)c(=O)[nH]1 [5-FU, 5-fluorouracil]
half-life [1]: 20 min

Cn1c(=O)c2[nH]c(-c3ccccc3)nc2n(C)c1=O [8-PT, 8-phenyltheophylline]
effect of antagonist on ISC induced by adenosine then NBMPR (T84 cells; 10 μM 8-PT after 1 μM adenosine and 10 μM NBMPR, basolateral, FIG. 4): ISC returned to baseline levels
effect of antagonist on currents induced by erlotinib and adenosine (T84 cells; 10 μM 8-PT after 20 μM erlotinib and 1 μM adenosine, basolateral, FIG. 8): abolished
effect of antagonist on currents induced by gefitinib and adenosine (T84 cells; 10 μM 8-PT after 100 μM gefitinib and 1 μM adenosine, basolateral, FIG. 9): abolished
effect of antagonist on currents induced by apical erlotinib or gefitinib (T84 cells; 10 μM 8-PT apical, FIG. 12): abolished
induction of ISC by adenosine after pretreatment with antagonist (T84 cells; 10 μM 8-PT basolateral prior to 1 μM adenosine basolateral, FIG. 7 panel C): no induction of ISC
effect of antagonist on currents induced by imatinib and adenosine (T84 cells; basolateral, FIG. 10): abolished
effect of antagonist on ISC induced by NBMPR then adenosine (T84 cells; 8-PT after 10 μM NBMPR and 1 μM adenosine, basolateral, FIG. 6): reversed the increase in ISC to baseline activity

O=[N+]([O-])c1ccc(CSc2ncnc3c2ncn3[C@@H]2O[C@H](CO)[C@@H](O)[C@H]2O)cc1 [NBMPR, nitrobenzylmercaptopurine riboside]
ISC on addition of NBMPR after adenosine (T84 cells; 10 μM NBMPR after 1 μM adenosine, basolateral, FIG. 4): much higher ISC
induction of currents by NBMPR (retest) (T84 cells; 20 μM NBMPR basolateral, FIG. 7 panel B): Induction of currents
increase in ISC on basolateral addition of the compound alone (T84 cells; basolateral): steady increase in ISC with time

Nc1ncnc2c1ncn2[C@@H]1O[C@H](CO)[C@@H](O)[C@H]1O [adenosine]
ISC on addition of adenosine after NBMPR (T84 cells; 1 μM adenosine after 10 μM NBMPR, basolateral, FIG. 6): substantial increase in ISC
currents on addition of adenosine after erlotinib (T84 cells; 1 μM adenosine after 20 μM erlotinib, basolateral, FIG. 8): substantial induction of currents
currents on addition of adenosine after gefitinib (T84 cells; 1 μM adenosine after 100 μM gefitinib, basolateral, FIG. 9): substantial induction of currents
currents on addition of adenosine after imatinib (T84 cells; 1 μM adenosine after 100 μM imatinib, basolateral, FIG. 10): substantial induction of currents
currents on addition of adenosine to apical and both sides (T84 cells; 1 μM adenosine, apical or both sides versus basolateral, FIG. 11): much higher currents than on the basolateral side alone
ISC with increasing concentrations of adenosine (T84 cells; adenosine basolateral in 1 μM increments, FIG. 7 panel A): ISC increased

C#Cc1cccc(Nc2ncnc3cc(OCCOC)c(OCCOC)cc23)c1 [erlotinib]
currents on apical addition of the TKI (T84 cells; FIG. 12): slow increase in currents
increase in ISC on basolateral addition of the compound alone (T84 cells; basolateral): increase in ISC similar to that of NBMPR
patients who develop diarrhea [2]: 30%

COc1cc2ncnc(Nc3ccc(F)c(Cl)c3)c2cc1OCCCN1CCOCC1 [gefitinib]
currents on apical addition of the TKI (T84 cells; FIG. 12): slow increase in currents
increase in ISC on basolateral addition of the compound alone (T84 cells; basolateral): slow but steady increase in ISC similar to that of NBMPR

CCN(CC)CCNC(=O)c1c(C)[nH]c(/C=C2\C(=O)Nc3ccc(F)cc32)c1C [sunitinib]
IC50 [3]: 50 µM

Cn1c(=O)c2[nH]cnc2n(C)c1=O [theophylline]
effect of antagonist on currents induced by imatinib and adenosine (T84 cells; basolateral, FIG. 10): abolished
effect of antagonist on adenosine induced increase in ISC (T84 cells; 10 μM antagonist, adenosine alone, FIG. 5): blocked

COc1cc2c(Nc3ccc(Br)cc3F)ncnc2cc1OCC1CCN(C)CC1 [vandetanib]
IC50 [3]: ≥ 100 µM
